Assay [1] addresses T1, Lysosomal acid glucosylceramidase (Homo sapiens, UniProt P04062).
T1 sequence (P04062 whole entry): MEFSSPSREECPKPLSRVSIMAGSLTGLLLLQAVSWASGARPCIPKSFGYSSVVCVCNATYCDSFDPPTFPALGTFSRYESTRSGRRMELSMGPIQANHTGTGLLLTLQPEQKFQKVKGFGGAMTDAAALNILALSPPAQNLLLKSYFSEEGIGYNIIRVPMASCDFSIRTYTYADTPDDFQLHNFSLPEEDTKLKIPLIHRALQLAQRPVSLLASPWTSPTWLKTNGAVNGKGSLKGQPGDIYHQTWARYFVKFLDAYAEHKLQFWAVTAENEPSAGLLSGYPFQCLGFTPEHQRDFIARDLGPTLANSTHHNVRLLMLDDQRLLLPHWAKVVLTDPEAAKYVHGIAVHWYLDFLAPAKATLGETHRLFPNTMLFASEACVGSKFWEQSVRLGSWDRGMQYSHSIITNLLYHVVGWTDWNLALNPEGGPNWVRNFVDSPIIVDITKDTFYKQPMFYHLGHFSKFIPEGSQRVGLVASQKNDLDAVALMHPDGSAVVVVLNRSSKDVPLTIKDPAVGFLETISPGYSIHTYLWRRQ
The assay can be described thus: Inhibition of human lysosomal beta-glucocerebrosidase using 4-methylumbelliferyl-beta-D-glucopyranoside as substrate preincubated for 45 mins before substrate addition measured after 30 mins by fluorescence spectrophotometer analysis.

Assay [2] addresses T1, Lysosomal acid glucosylceramidase. The assay can be described thus: Competitive inhibition of human lysosomal beta-glucocerebrosidase using 4-methylumbelliferyl-beta-D-glucopyranoside as substrate preincubated for 45 mins before substrate addition measured after 30 mins by double-reciprocal plot analysis.
Assay [3] addresses T2, Lysosomal acid glucosylceramidase (Homo sapiens) (UniProt P04062).
T2 sequence (whole entry): T1 sequence (P04062 whole entry)
The assay can be described thus: Inhibition of human lysosomal beta-glucocerebrosidase using 4-methylumbelliferyl-beta-D-glucopyranoside as substrate at 1000 uM preincubated for 45 mins before substrate addition measured after 30 mins by fluorescence spectrophotometer analysis.

The source of these data is ChEMBL document CHEMBL3232941, “Docking and SAR studies of calystegines: binding orientation and influence on pharmacological chaperone effects for Gaucher's disease” (Bioorg Med Chem, 2014).

The IC50 is the point on the concentration scale where inhibition reaches its midpoint. In general, Ki refers to a measure of affinity in units of concentration, obtained from inhibition or displacement. High values mean a looser hold on the target, low ones a stronger hold on the target. `O[C@@H]1C[C@H]2CC[C@](O)(N2)[C@H]1O` returned a concentration for half-maximal inhibition (IC50) in assay [1] of 16 µM. For the same compound, the Ki in assay [2] came out at 6.3 µM. Broadly, the inhibition is how much of the control response was suppressed. A low value points to a weak effect. For the compound `O[C@@H]1[C@@H](O)C[C@]2(O)CC[C@H]1N2`, the inhibition in assay [3] is under 50%. Regarding `O[C@@H]1[C@@H](O)[C@H]2CC[C@](O)(N2)[C@@H]1O`, it took 616 µM to reach half-maximal inhibition in assay [1] (IC50). Besides, in assay [2], the Ki came to 199 µM. In the case of `O[C@@H]1[C@@H](O)[C@H](O)[C@]2(O)CC[C@H]1N2` [CALYSTEGINE B2], the IC50 in assay [1] was 5.1 µM. The compound also gave a Ki in assay [2] of 3.8 µM.

Compound `O[C@@H]1[C@H](O)[C@H]2CC[C@](O)(N2)[C@H]1O` showed a 50% inhibitory concentration (IC50) in assay [1] of 175 µM. This compound gave a Ki in assay [2] of 98 µM.
